The record followed here is ChEMBL document CHEMBL4190264, “Phylogenomics of 2,4-Diacetylphloroglucinol-Producing Pseudomonas and Novel Antiglycation Endophytes from Piper auritum” (J Nat Prod, 2017).

SMILES strings stand for the structures. Active and inactive are the calls of the source. The rule behind the calls is not given here.

Data set [1] concerns the target T1, Albumin (Bos taurus, UniProt P02769). Put plainly: Antiglycation activity in bovine serum albumin assessed as inhibition of advanced glycated end product formation in presence of D-glucose at 10 mM by spectrofluorimetric analysis. The note with it: cattle.
For data set [2], the target named is T1, Albumin. Put plainly: Antiglycation activity in bovine serum albumin assessed as inhibition of advanced glycated end product formation in presence of D-glucose by spectrofluorimetric analysis. The settings on record: for inhibition (INH): cattle.
Data set [3] deals with T1, Albumin. As to the kind of experiment: Antiglycation activity in bovine serum albumin assessed as inhibition of advanced glycated end product formation in presence of D-glucose and 5-hydroxyferulic acid by spectrofluorimetric analysis. The settings on record: cattle.
The nature of data set [4]: Inhibition of glucose auto-oxidation after 30 mins in presence of deoxyribose by benzoate hydroxylation assay. Format: functional.
In data set [5] the target is T1, Albumin. Put plainly: Antiglycation activity in bovine serum albumin assessed as inhibition of MGO-mediated protein modification after 5 days by PAGE analysis. The settings on record: cattle, 120 h.
For data set [6], the target named is T2, Albumin (Homo sapiens, UniProt P02768). Put plainly: Antiglycation activity in human serum albumin assessed as inhibition of fructosamine formation by measuring amadori products after 10 to 15 mins by NBT assay.
T2 sequence (P02768 whole entry): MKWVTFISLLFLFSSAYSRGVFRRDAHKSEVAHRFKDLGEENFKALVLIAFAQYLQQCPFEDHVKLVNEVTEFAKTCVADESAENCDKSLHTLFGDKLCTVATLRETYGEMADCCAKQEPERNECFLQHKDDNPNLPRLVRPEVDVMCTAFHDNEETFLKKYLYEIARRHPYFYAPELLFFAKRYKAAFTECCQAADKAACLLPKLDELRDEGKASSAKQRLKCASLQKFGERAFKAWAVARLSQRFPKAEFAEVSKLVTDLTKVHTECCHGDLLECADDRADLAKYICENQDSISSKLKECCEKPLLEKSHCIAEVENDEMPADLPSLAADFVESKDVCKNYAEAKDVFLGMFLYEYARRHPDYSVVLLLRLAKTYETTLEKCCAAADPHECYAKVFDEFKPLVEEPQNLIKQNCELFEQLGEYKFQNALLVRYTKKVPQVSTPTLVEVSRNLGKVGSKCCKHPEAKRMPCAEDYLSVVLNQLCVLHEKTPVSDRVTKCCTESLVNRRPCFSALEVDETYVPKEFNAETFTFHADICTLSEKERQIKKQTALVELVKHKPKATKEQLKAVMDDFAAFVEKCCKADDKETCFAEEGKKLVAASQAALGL
Data set [7] addresses T2, Albumin. Put plainly: Antiglycation activity in human serum albumin assessed as inhibition of fructosamine formation by measuring amadori products after 10 to 15 mins in presence of 5-hydroxyferulic acid by NBT assay.
The target in data set [8] is T1, Albumin. As to the kind of experiment: Antiglycation activity in bovine serum albumin assessed as inhibition of advanced glycated end product formation in presence of D-glucose and ferulic acid by spectrofluorimetric analysis. The note with it: cattle.

T1 sequence (P02769 whole entry): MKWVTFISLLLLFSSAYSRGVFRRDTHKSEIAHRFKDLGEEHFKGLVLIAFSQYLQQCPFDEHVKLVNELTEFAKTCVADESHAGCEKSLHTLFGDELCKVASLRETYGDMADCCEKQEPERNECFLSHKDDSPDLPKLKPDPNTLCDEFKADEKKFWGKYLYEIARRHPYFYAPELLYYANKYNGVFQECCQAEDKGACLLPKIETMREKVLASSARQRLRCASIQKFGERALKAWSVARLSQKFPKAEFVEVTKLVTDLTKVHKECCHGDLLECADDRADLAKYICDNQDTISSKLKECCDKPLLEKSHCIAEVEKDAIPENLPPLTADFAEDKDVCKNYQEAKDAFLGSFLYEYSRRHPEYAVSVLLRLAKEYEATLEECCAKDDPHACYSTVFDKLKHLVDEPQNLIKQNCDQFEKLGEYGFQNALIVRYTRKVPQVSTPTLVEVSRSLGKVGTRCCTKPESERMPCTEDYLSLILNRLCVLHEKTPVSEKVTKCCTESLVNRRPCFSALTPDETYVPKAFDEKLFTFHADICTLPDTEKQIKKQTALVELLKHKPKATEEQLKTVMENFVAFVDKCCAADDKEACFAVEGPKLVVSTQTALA

With `N=C(N)NN` [PIMAGEDINE], the “inhibition (INH)” value at Albumin [1] is “Active”. Further, the half-maximal effective concentration (EC50) (in general, the concentration giving half of the maximal effect) at Albumin [2] was 26 mM.
Turning to `CC(=O)c1c(O)cc(O)c(C(C)=O)c1O`, the EC50 at Albumin [2] was found to be 6.3 mM. The “inhibition (INH)” value at Albumin [2] is recorded as 83%; on Albumin [3], “Active”; at Albumin [5] it was “Active”; on Albumin [6], “Not Active”; at Albumin [7], “Active”. Moreover, the inhibition entry in data set [4] was “Active”.
As for `COc1cc(/C=C/C(=O)O)cc(O)c1O`, the “inhibition (INH)” value on Albumin [2] was “Not Active”; on Albumin [8], “Active”.
As to `COc1cc(/C=C/C(=O)O)ccc1O` [FERULATE], the results for the “inhibition (INH)” value at Albumin [2] and on Albumin [3] were “Not Active” and “Active”, respectively.
As for `CCCCCCCCCCCCCCCC(=O)O` [PALMITIC ACID], at Albumin [2], the “inhibition (INH)” value is on record as 66%.
Same read-out and setting: the same measure for `CCCCCCCC/C=C\CCCCCCC(=O)O`: 66%; for `CCCCCC/C=C\CCCCCCCCCC(=O)O` [VACCENIC ACID]: 66%.
